Reference: PubChem BioAssay AID278 (DTP/NCI, 2004)
Values joined by “and” are separate entries in the source; they are usually repeats but may differ in a detail not shown here. Equal values may be shown once. Results filed as inconclusive are left out.

System: nude mice, A549 intrarenal xenograft, tumor weight change
Experiment: NCI In Vivo Anticancer Drug Screen. Data for tumor model A549 Human Adenocarcinoma of Lung with characteristics of Type II Alveolar Epithelial cells (intrarenal inoculation) in NU/NU BALB/C (nude) mice
Conditions: endpoint: mean tumor weight change, higher = larger tumour
How it was run: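 Activity is expressed as T/C: the treated-group value over the vehicle-treated control value. The measure was survival or tumor size in mice carrying transplantable tumors.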

[1] = dose: 150.0 mg/kg/injection, schedule: Q04DX003 (ip), vehicle: saline with Tween-80
[2] = dose: 300.0 mg/kg/injection, schedule: Q04DX003 (ip), vehicle: saline with Tween-80
[3] = dose: 150.0 mg/kg/injection, schedule: Q04DX003 (ip), vehicle: Klucel (hydroxypropylcellulose) (HPC)
[4] = dose: 300.0 mg/kg/injection, schedule: Q04DX003 (ip), vehicle: Klucel (hydroxypropylcellulose) (HPC)
[5] = dose: 12.5 mg/kg/injection, schedule: Q04DX003 (ip), vehicle: saline with Tween-80
[6] = dose: 25.0 mg/kg/injection, schedule: Q04DX003 (ip), vehicle: saline with Tween-80
[7] = dose: 50.0 mg/kg/injection, schedule: Q04DX003 (ip), vehicle: saline with Tween-80
[8] = dose: 100.0 mg/kg/injection, schedule: Q04DX003 (ip), vehicle: saline with Tween-80

With `Nc1ccn([C@@H](C=O)C[C@@H](C=O)CO)c(=O)n1` as the molecule, how does the T/C (dose: 37.5 mg/kg/injection, schedule: Q04DX003 (ip), vehicle: saline with Tween-80) read?
The T/C was 42 % of control.

What about the T/C (dose: 75.0 mg/kg/injection, schedule: Q04DX003 (ip), vehicle: saline with Tween-80) of the same molecule?
Its T/C is 245 % of control.

What about the T/C [1] of the same molecule?
The T/C was 66 % of control.

What about the T/C [2] of the same molecule?
The T/C was 216 % of control and 82 % of control.

What about the T/C (dose: 600.0 mg/kg/injection, schedule: Q04DX003 (ip), vehicle: saline with Tween-80) of the same molecule?
The T/C was 48 % of control.

And the T/C (dose: 1200.0 mg/kg/injection, schedule: Q04DX003 (ip), vehicle: saline with Tween-80)?
The T/C was 26 % of control.

For `C=C(c1ccc(OC)c(OC)c1)c1nccc2cc(OC)c(OC)cc12`, which T/C [3] is on record?
Its T/C is 50 % of control.

What about the T/C [4] of the same molecule?
The T/C was 62 % of control.

Which results are given for `NC(N)=NS(=O)(=O)c1ccc(NCc2c3ccccc3nc3ccccc23)cc1`?
T/C [3]: 4 % of control; T/C [4]: 10 % of control; T/C (dose: 600.0 mg/kg/injection, schedule: Q04DX003 (ip), vehicle: Klucel (hydroxypropylcellulose) (HPC)): -10 % of control; T/C (dose: 1200.0 mg/kg/injection, schedule: Q04DX003 (ip), vehicle: Klucel (hydroxypropylcellulose) (HPC)): -7 % of control

How did the T/C [5] turn out when `C/C(=N\NC(=S)N1CC2CCC(CC2)C1)c1nccs1` was run?
Its T/C is 62 % of control.

And the T/C [6]?
Its T/C is 47 % of control.

And the T/C [7]?
The T/C was 32 % of control.

What does the source list for `CC(/C=C/C=C/C=C/C=C/C=C/C(O)=C1/C(=O)C(CCC(=O)O)N(C)C1=O)=C\C(C)C(OC1CC(O)C(O)C(C)O1)C(C)C` (stereo not given)?
T/C (dose: 15.88 mg/kg/injection, schedule: Q04DX003 (ip), vehicle: water): 60 % of control; T/C (dose: 31.75 mg/kg/injection, schedule: Q04DX003 (ip), vehicle: water): 61 % of control; T/C (dose: 62.5 mg/kg/injection, schedule: Q04DX003 (ip), vehicle: water): 110 % of control; T/C (dose: 75.0 mg/kg/injection, schedule: Q04DX003 (ip), vehicle: water): 37 % of control

For `CC[C@@]1(O)C(=O)OCc2c1cc1n(c2=O)Cc2cc3c(N)cccc3nc2-1`, which T/C (dose: 1.0 mg/kg/injection, schedule: Q04DX003 (ip), vehicle: saline with Tween-80) is on record?
The T/C was 3 % of control.

What about the T/C (dose: 1.44 mg/kg/injection, schedule: Q04DX003 (ip), vehicle: saline with Tween-80) of the same molecule?
Its T/C is 1 % of control.

What about the T/C (dose: 2.0 mg/kg/injection, schedule: Q04DX003 (ip), vehicle: saline with Tween-80) of the same molecule?
Its T/C is -8 % of control.

What about the T/C (dose: 2.4 mg/kg/injection, schedule: Q04DX003 (ip), vehicle: saline with Tween-80) of the same molecule?
The T/C was -64 % of control.

And the T/C (dose: 4.0 mg/kg/injection, schedule: Q04DX003 (ip), vehicle: saline with Tween-80)?
The T/C was -68 % of control.

Which T/C (dose: 18.0 mg/kg/injection, schedule: Q04DX003 (ip), vehicle: other) does the source give for `O=C(Nc1cccc(O)c1)C(Cl)=C(Cl)Cl` here?
Its T/C is 46 % of control.

What about the T/C (dose: 25.0 mg/kg/injection, schedule: Q04DX003 (ip), vehicle: DMSO) of the same molecule?
The T/C was 108 % of control.

What about the T/C (dose: 30.0 mg/kg/injection, schedule: Q04DX003 (ip), vehicle: other) of the same molecule?
Its T/C is 50 % of control and 74 % of control.

And the T/C (dose: 50.0 mg/kg/injection, schedule: Q04DX003 (ip), vehicle: DMSO)?
The T/C was 18 % of control.

What about the T/C (dose: 50.0 mg/kg/injection, schedule: Q04DX003 (ip), vehicle: other) of the same molecule?
Its T/C is 76 % of control.

How did the T/C (dose: 30.0 mg/kg/injection, schedule: Q04DX003 (ip), vehicle: saline) turn out when `N#Cc1c(N)[nH]c2ccc(Sc3ccccc3)cc12` was run?
Its T/C is 106 % of control.

What about the T/C (dose: 60.0 mg/kg/injection, schedule: Q04DX003 (ip), vehicle: saline) of the same molecule?
The T/C was 42 % of control.

And the T/C (dose: 240.0 mg/kg/injection, schedule: Q04DX003 (ip), vehicle: saline)?
Its T/C is 49 % of control.

Which T/C (dose: 0.67 mg/kg/injection, schedule: Q01DX009 (ip), vehicle: saline) does the source give for `Nc1ccn([C@@H]2C=C(CO)[C@@H](O)[C@H]2O)c(=O)n1` here?
Its T/C is 58 % of control.

And the T/C (dose: 1.0 mg/kg/injection, schedule: Q01DX009 (ip), vehicle: saline)?
Its T/C is 20 % of control and 40 % of control.

What about the T/C (dose: 1.5 mg/kg/injection, schedule: Q01DX009 (ip), vehicle: saline) of the same molecule?
The T/C was -59 % of control.

What about the T/C (dose: 2.0 mg/kg/injection, schedule: Q01DX009 (ip), vehicle: saline) of the same molecule?
Its T/C is 8 % of control.

`CC1(O)C=CC(=O)C=C1` was tested. Which T/C (dose: 25.0 mg/kg/injection, schedule: Q04DX003 (ip), vehicle: water) did it give?
The T/C was 121 % of control.

And the T/C (dose: 50.0 mg/kg/injection, schedule: Q04DX003 (ip), vehicle: water)?
The T/C was 100 % of control.

What does the source list for `CN(C)CCNc1ccc(CO)c2sc3ccc(O)cc3c(=O)c12`?
T/C (dose: 54.0 mg/kg/injection, schedule: Q04DX003 (ip), vehicle: saline with Tween-80): 5 % of control; T/C (dose: 90.0 mg/kg/injection, schedule: Q04DX003 (ip), vehicle: saline with Tween-80): 3 % of control; T/C [1]: 2 % of control and 12 % of control; T/C (dose: 250.0 mg/kg/injection, schedule: Q04DX003 (ip), vehicle: saline with Tween-80): -36 % of control

For `CCCCN1C(=O)N(c2ccc(OCC)cc2)C2N(CCCC)C1C(C)(C)C2(C)C` (stereo not given), which T/C (dose: 15.0 mg/kg/injection, schedule: Q04DX003 (ip), vehicle: saline with Tween-80) is on record?
The T/C was 60 % of control.

And the T/C (dose: 30.0 mg/kg/injection, schedule: Q04DX003 (ip), vehicle: saline with Tween-80)?
The T/C was 51 % of control.

What about the T/C (dose: 60.0 mg/kg/injection, schedule: Q04DX003 (ip), vehicle: saline with Tween-80) of the same molecule?
The T/C was 88 % of control.

And the T/C (dose: 120.0 mg/kg/injection, schedule: Q04DX003 (ip), vehicle: saline with Tween-80)?
Its T/C is 94 % of control.

Which results are given for `O=C1c2cccc(NCCCNCCO)c2C(=O)c2cccc(NCCCNCCO)c21`?
T/C (dose: 12.5 mg/kg/injection, schedule: Q04DX003 (ip), vehicle: acid diluted with saline): 108 % of control; T/C (dose: 25.0 mg/kg/injection, schedule: Q04DX003 (ip), vehicle: acid diluted with saline): 70 % of control

What does the source list for `Cc1ccc(/C=C/C(=O)/C=C/c2ccc(C)o2)o1`?
T/C (dose: 100.0 mg/kg/injection, schedule: Q04DX003 (ip), vehicle: DMSO): 123 % of control; T/C (dose: 200.0 mg/kg/injection, schedule: Q04DX003 (ip), vehicle: DMSO): 73 % of control; T/C (dose: 400.0 mg/kg/injection, schedule: Q04DX003 (ip), vehicle: DMSO): 78 % of control; T/C (dose: 800.0 mg/kg/injection, schedule: Q04DX003 (ip), vehicle: DMSO): 68 % of control

How did the T/C [5] turn out when `CC(=O)C[n+]1ccccc1Sc1ccc(Cl)cc1` was run?
Its T/C is 107 % of control.

What about the T/C [6] of the same molecule?
The T/C was 80 % of control.

What about the T/C [7] of the same molecule?
Its T/C is 93 % of control.

What about the T/C [8] of the same molecule?
The T/C was 79 % of control.

What does the source list for `c1cc2c(c(CC3CO3)c1CC1CO1)OCCOCCOCCOCCO2` (stereo not given)?
T/C (dose: 62.5 mg/kg/injection, schedule: Q04DX003 (ip), vehicle: saline + alcohol): 74 % of control; T/C (dose: 125.0 mg/kg/injection, schedule: Q04DX003 (ip), vehicle: saline + alcohol): 98 % of control; T/C (dose: 250.0 mg/kg/injection, schedule: Q04DX003 (ip), vehicle: saline + alcohol): 64 % of control; T/C (dose: 375.0 mg/kg/injection, schedule: Q04DX003 (ip), vehicle: saline + alcohol): 75 % of control

What does the source list for `O=C1CN(CO)C(=O)N1CO`?
T/C (dose: 50.0 mg/kg/injection, schedule: Q04DX003 (ip), vehicle: saline): 172 % of control; T/C (dose: 400.0 mg/kg/injection, schedule: Q04DX003 (ip), vehicle: saline): 120 % of control

`CNC(=O)N(C)N=NCCCl` was tested. Which T/C [8] did it give?
Its T/C is -19 % of control.

What about the T/C (dose: 200.0 mg/kg/injection, schedule: Q04DX003 (ip), vehicle: saline with Tween-80) of the same molecule?
The T/C was -66 % of control.

Which T/C [1] does the source give for `CCCCCCCCCCCCCCCCCCOCC(CO)OC` (stereo not given) here?
Its T/C is 47 % of control and 53 % of control.

And the T/C [2]?
The T/C was 56 % of control and 73 % of control.

How did the T/C (dose: 0.63 mg/kg/injection, schedule: Q04DX003 (ip), vehicle: saline + alcohol) turn out when `CC1OC2CC(O)C1(O)C1=C2C(O)=C(C(N)=O)C(=N)C1=O` (stereo not given) was run?
Its T/C is 66 % of control.

And the T/C (dose: 1.25 mg/kg/injection, schedule: Q04DX003 (ip), vehicle: saline + alcohol)?
Its T/C is 48 % of control.

What about the T/C (dose: 2.5 mg/kg/injection, schedule: Q04DX003 (ip), vehicle: saline + alcohol) of the same molecule?
The T/C was 35 % of control.

And the T/C (dose: 5.0 mg/kg/injection, schedule: Q04DX003 (ip), vehicle: saline + alcohol)?
Its T/C is 94 % of control.

How did the T/C (dose: 2.36 mg/kg/injection, schedule: Q04DX003 (ip), vehicle: saline + alcohol) turn out when `C=C(CO)C(=O)OC1CC(=C)C2CC(O)C(=C)C2[C@H]2OC(=O)C(=C)C12` (stereo not given in full) was run?
The T/C was 64 % of control.

What about the T/C (dose: 4.72 mg/kg/injection, schedule: Q04DX003 (ip), vehicle: saline + alcohol) of the same molecule?
The T/C was 99 % of control.

What about the T/C (dose: 8.75 mg/kg/injection, schedule: Q04DX003 (ip), vehicle: saline + alcohol) of the same molecule?
The T/C was 86 % of control.

With `CCCCNP1(NCCCC)=NP(NCCCC)(NCCCC)=NP(NCCCC)(NCCCC)=NP(NCCCC)(NCCCC)=N1` as the molecule, how does the T/C [1] read?
The T/C was 111 % of control.

And the T/C [2]?
The T/C was 44 % of control.
